Reference: article PMC8908490 (ACS Omega, 2022)

Key:
interleukin-1β = settings: cell-based interleukin-1β assay; cited from earlier work
[1] = cited from earlier work
[2] = HPLC-based chemical stability at different pH; settings: for chemical stability (in words): acidic conditions, pH 1, 37 °C
human NLRP3-NACHT domain = human NLRP3-NACHT domain (Homo sapiens, UniProt Q96P20); settings: presence of ADP
Chain of human NLRP3-NACHT domain (Q96P20 220-536 limits assumed): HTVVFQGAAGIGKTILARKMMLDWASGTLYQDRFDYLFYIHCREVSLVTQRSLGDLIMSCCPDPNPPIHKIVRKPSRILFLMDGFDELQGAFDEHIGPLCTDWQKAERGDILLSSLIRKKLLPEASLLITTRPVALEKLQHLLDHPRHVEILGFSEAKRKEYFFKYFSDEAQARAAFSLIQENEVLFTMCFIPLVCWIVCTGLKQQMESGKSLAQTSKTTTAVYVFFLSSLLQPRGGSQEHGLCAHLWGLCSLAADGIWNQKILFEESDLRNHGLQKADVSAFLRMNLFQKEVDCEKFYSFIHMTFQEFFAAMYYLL

| Structure (SMILES) | chemical stability (in words) [2] | further results |
| --- | --- | --- |
| CC(C)(O)c1coc(S(=O)(=O)NC(=O)Nc2c3c(cc4c2CCC4)CCC3)c1 [Compound 1, N-((1,2,3,5,6,7-Hexahydro-s-indacen-4-yl)carbamoyl)-4-(2-hydroxypropan-2-yl)furan-2-sulfonamide] |  | IC50 (interleukin-1β): 7.5 nM; plasma half-life [1]: 3.27 h |
| CC(C)(O)c1csc(S(=O)(=O)NC(=O)Nc2c3c(cc4c2CCC4)CCC3)c1 [Compound 2, N-((1,2,3,5,6,7-Hexahydro-s-indacen-4-yl)carbamoyl)-4-(2-hydroxypropan-2-yl)thiophene-2-sulfonamide] | similarly stable |  |
| O=C(Nc1c2c(cc3c1CCC3)CCC2)NS(=O)(=O)c1cccs1 [Compound 4, N-((1,2,3,5,6,7-Hexahydro-s-indacen-4-yl)carbamoyl)thiophene-2-sulfonamide] |  | fold shorter half-life than benzene analogue ([2]; pH 1, 4 versus 8, 6 versus 9): 12 fold |
| O=C(Nc1c2c(cc3c1CCC3)CCC2)NS(=O)(=O)c1ccco1 [Compound 3, N-((1,2,3,5,6,7-Hexahydro-s-indacen-4-yl)carbamoyl)furan-2-sulfonamide] | unstable |  |

More lines, main results first:

| chemical stability (in words) [2] | Structure (SMILES) | further results |
| --- | --- | --- |
| unstable | CC(C)S(=O)(=O)NC(=O)Nc1c2c(cc3c1CCC3)CCC2 [Compound 5, N-((1,2,3,5,6,7-Hexahydro-s-indacen-4-yl)carbamoyl)propane-2-sulfonamide] |  |
| similarly unstable | O=C(Nc1c2c(cc3c1CCCC3)CCCC2)NS(=O)(=O)c1ccccc1 [Compound 7, N-((1,2,3,4,5,6,7,8-Octahydroanthracen-9-yl)carbamoyl)benzenesulfonamide] | NLRP3 binding by SPR (in words) (human NLRP3-NACHT domain): total loss of binding ability |
